Reference: PMC12225454, “Photo-clenbuterol: Optical Control of β2‑Adrenergic Receptor Signaling by Photoswitchable Ligand Efficacy” (Journal of Medicinal Chemistry, 2025)
Where “and” joins values, the source holds several entries; their conditions need not be identical. Identical values can stand only once.

Experiments:
[1] = UV/vis absorption spectra before and after illumination; format: physicochemical; conditions: 25 μM in HBSS buffer containing 1% DMSO; for λmax (nm) PSS cis: n−π* transition, approximated from PSS cis composition; for λmax (nm) trans: π–π* transition of trans isomer
[2] = Photostationary state composition by LC-MS at isosbestic point; conditions: for PSS cis (% cis) / PSS trans (% trans): DMSO 10 mM, LC-MS at isosbestic point; for PSS cis (% cis): after 360 ± 20 nm (12d: 520 ± 12 nm); for PSS trans (% trans): after 434 ± 9 nm from PSS cis
[3] = Photostationary state composition by 1H NMR; format: physicochemical
From the text: However, it has been computationally studied by Konrad et al. who calculated the n−π* band to be 444.5 nm for the cis isomer of the parent compound in the gas phase. […] The difference between calculated and experimental value could conceivably be the result of the buffer solvent not having been included in the calculations and/or the suboptimal trans to cis conversion at PSS cis (PSS cis = 66.3%). […] The PSS cis curve is slightly […], potentially enabling trans–cis isomerization at longer wavelengths. […] However, not unexpectedly given the low absorption at 560 nm, the illumination time required is much longer (hours versus 20 min with 360 nm illumination). Such longer illumination times would only be acceptable if the pharmacological differences between the isomers were much more pronounced, not requiring full conversions to PSS cis . […] The PSS cis and PSS trans values by LC–MS analysis (Figures B and S5) at the isosbestic point (376 nm) are 66.3% and 72.5%, respectively. These are similar to the 62.4% and 78.7% values obtained from ^1H NMR analysis, in which the well-resolved signal of the benzylic CH group allowed quantification of the PSS values (Figures C and S7).

[4] = Reversible isomerization cycles under alternating illumination (photobleaching resistance); conditions: 25 μM in HBSS buffer containing 1% DMSO; 365 ± 11 nm / 440 ± 25 nm
human β2-AR = target: T1, human β2-AR (Homo sapiens, UniProt P07550, E27Q/G16R); assay: [3H]DHA competition radioligand binding on HEK293T membranes
T1 construct: Human β2AR (GenBank: NP_000015.1) in pcDNA3.1+ expression plasmid; expressed in transfected cells; host or cells: HEK293T cells, transient transfection with PEI; membranes prepared

β2-AR = β2-AR (Homo sapiens, UniProt P07550); assay: FRET-based EPAC cAMP assay, ligand stimulation (agonist mode); format: cell-based
β2-AR, sequence (P07550 whole entry): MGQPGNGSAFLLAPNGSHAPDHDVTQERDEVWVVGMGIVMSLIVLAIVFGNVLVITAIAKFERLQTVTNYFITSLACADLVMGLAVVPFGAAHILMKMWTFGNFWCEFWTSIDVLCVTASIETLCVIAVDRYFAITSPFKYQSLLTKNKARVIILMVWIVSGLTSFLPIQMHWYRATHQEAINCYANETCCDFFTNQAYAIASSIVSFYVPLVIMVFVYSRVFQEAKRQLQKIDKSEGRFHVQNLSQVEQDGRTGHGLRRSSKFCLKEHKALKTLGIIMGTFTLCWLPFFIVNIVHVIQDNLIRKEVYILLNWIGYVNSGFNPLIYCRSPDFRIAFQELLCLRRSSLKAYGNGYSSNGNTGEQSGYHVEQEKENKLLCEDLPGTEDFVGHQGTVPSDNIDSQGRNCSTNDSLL

T1 sequence (P07550 whole entry G16R/E27Q): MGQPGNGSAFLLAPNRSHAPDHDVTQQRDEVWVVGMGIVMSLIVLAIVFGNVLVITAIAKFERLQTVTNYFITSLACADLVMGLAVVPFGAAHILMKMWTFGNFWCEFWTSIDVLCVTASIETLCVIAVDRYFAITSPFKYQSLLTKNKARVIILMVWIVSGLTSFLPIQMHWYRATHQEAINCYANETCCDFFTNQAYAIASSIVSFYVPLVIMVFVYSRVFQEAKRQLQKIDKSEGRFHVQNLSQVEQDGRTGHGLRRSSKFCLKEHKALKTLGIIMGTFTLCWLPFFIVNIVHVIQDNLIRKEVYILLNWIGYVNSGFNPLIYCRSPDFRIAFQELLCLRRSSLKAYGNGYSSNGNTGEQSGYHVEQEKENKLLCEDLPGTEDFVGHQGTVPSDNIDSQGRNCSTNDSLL

| Structure (SMILES) | λmax (nm) PSS cis [1] [nm] | λmax (nm) trans [1] [nm] | PSS cis (% cis) [2] | PSS trans (% trans) [2] | PSS cis value from 1H NMR analysis ([3]; 10 mM in DMSO-d6, 360 ± 20 nm) [%] | PSS trans value from 1H NMR analysis ([3]; 10 mM in DMSO-d6, 434 ± 9 nm after PSS cis) [%] | PSS cis value with 560 nm light ([2]; 560 nm illumination, LC-MS) [%] | resistance to photobleaching, dynamic isomerization cycles [4] | Ki (human β2-AR) [µM] | pEC50 trans (β2-AR) | α trans, intrinsic activity Emax (ligand)/Emax (isoprenaline) (β2-AR) |
| --- | --- | --- | --- | --- | --- | --- | --- | --- | --- | --- | --- |
| CC(C)(C)NCC(O)c1ccc(/N=N/c2ccccc2)cc1 (stereo not drawn) [Compound 12a, (E)-2-(tert-Butylamino)-1-(4-(phenyldiazenyl)-phenyl)-ethan-1-ol] | 425 | 323 | 94.6 ± 0.5% | 71.8 ± 0.2% |  |  |  |  |  |  |  |
| CC(C)(C)NCC(O)c1cc(Cl)c(/N=N/c2ccccc2)c(Cl)c1 (stereo not drawn) [Compound 12b, (E)-2-(tert-Butylamino)-1-(3,5-dichloro-4-(phenyldiazenyl)phenyl)-ethan-1-ol] | 417 | 306 | 66.3% and 66.3 ± 0.9% | 72.5% and 72.5 ± 0.1% | 62.4 | 78.7 | 74.9 | at least 10 cycles |  |  |  |
| CC(C)(C)NCC(O)c1ccc(/N=N/c2ccccc2)c(Cl)c1 (stereo not drawn) [Compound 12c, (E)-2-(tert-Butylamino)-1-(3-chloro-4-(phenyldiazenyl)phenyl)-ethan-1-ol] | 428 | 328 | 97.6 ± 0.1% | 65.5 ± 0.2% |  |  |  |  |  |  |  |
| CC(C)(C)NCC(O)c1cc(Cl)c(/N=N/c2c(Cl)cccc2Cl)c(Cl)c1 (stereo not drawn) [Compound 12d, (E)-2-(tert-Butylamino)-1-(3,5-dichloro-4-((2,6-dichlorophenyl)-diazenyl)-phenyl)-ethan-1-ol] | 441 | 293 | 38.5 ± 0.5% | 94.1 ± 0.3% |  |  |  |  |  |  |  |
| CC(C)(C)NCC(O)c1cc(Cl)c(/N=N/c2ccccc2)c(C#N)c1 (stereo not drawn) [Compound 12e, (E)-5-(2-(tert-Butylamino)-1-hydroxyethyl)-3-chloro-2-(phenyldiazenyl)-benzonitrile] | 426 | 331 | 88.7 ± 0.8% | 82.0 ± 0.4% |  |  |  |  |  |  |  |
| CC(C)(C)NCC(O)c1cc(Cl)c(N)c(C#N)c1 (stereo not drawn) [Compound 18, 2-Amino-5-(2-(tert-butylamino)-1-hydroxyethyl)-3-chlorobenzonitrile] |  |  |  |  |  |  |  |  | 0.02 | 9.0 ± 0.0 | 0.8 ± 0.0 |
